This is an account of results in patent publication US11098027B2, “Therapeutic heterocyclic compounds” (Gilead Sciences, Inc., priority 2018, dated 2021).

pEC50: −log10 of the molar value.

In general, pEC50 refers to the EC50 on a negative log10 scale, so that one unit is a factor of ten. Read a high pEC50 as a low EC50.

T1 sequence (P14902 whole entry): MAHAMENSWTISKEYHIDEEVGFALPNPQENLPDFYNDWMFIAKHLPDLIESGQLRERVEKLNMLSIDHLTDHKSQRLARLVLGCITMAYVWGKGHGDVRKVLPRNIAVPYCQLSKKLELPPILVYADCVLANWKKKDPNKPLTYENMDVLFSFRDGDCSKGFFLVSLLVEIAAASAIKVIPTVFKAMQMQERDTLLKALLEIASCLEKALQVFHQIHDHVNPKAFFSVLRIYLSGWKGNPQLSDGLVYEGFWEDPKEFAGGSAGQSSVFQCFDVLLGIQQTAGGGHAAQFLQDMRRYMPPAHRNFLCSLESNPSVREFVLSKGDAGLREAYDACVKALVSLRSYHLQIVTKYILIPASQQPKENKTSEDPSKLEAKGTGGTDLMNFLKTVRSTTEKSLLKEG

The assay addresses T1, IDO1 (Homo sapiens, UniProt P14902).
T1 construct: HeLa cells were treated with a test compound in the presence of IFNγ, which induces IDO1 expression; host or cells: H1-HeLa cells, IDO1 induced with IFNγ
The assay is described as follows: Cell-based (HeLa) assay for measurement of IDO1 inhibition (kynurenine levels in supernatant). Particulars: H1-HeLa cells, IDO1 induced with IFNγ, 48 hour incubation, kynurenine read by absorbance at 480 nm; geometric mean of a minimum of four determinations. The protocol:
Example B-1. Cell-Based (HeLa) Assay for Measurement of IDO1 Inhibition
To measure IDO1 inhibition in tissue culture, HeLa cells were treated with a test compound in the presence of IFNγ, which induces IDO1 expression. Following incubation, cell supernatants were assayed for kynurenine levels, an indicator of IDO1 activity.
The following day, the test compounds were added in DMSO (0.5% final) at various concentrations, and IDO1 was inducibly expressed by the addition of 50 uL/well of 50 ng/mL of INFγ (Peprotech #300-02) in cell plating media. As a positive control, 50 uL of the cell plating media without IFNγ was added to several wells. Following a 48 hour incubation, the plates were spun down at 1,200 RPM for 5 min at 10° C. 65 μL/well of the supernatant was then transferred to new 384-well plates (Thermo #262160) that contained 10 uL/well of 30% TCA (Sigma # TO699), and the plates were sealed and incubated at 60° C. for 30 min. The plates were then centrifuged for 15 min at 2,000 RPM at 10° C. 40 μL/well of the supernatant was transferred to new 384-well plates (Thermo #262160) and was reacted with 40 μL/well of 2% (w/v) p-dimethlyaminobenzaldehyde (Sigma #156417) in glacial acetic acid (Sigma #A6283). The reaction was incubated at room temperature for 10 min and absorbance at 480 nm was read using a PerkinElmer Envision plate reader.
Data in Table 1 were normalized based on positive (−IFNγ) and negative (+IFNγ) controls and EC50 values were calculated from the fit of the dose—response curves to a four-parameter equation. All EC50 values represent geometric mean values of a minimum of four determinations. These assays generally produced results within 2-fold of the reported mean
As for `O=C(Nc1ccc(F)cc1)c1cc(-c2cccc3c2[nH]c(=O)n3-c2ncccn2)ccc1C(F)(F)F` [Example 29, N-(4-fluorophenyl)-5-(2-oxo-1-(pyrimidin-2-yl)-2,3-dihydro-1H-benzo[d]imidazol-4-yl)-2-(trifluoromethyl)benzamide], the pEC50 was 6.75.
Molecule `CC1(C)C(=O)N(c2ncccn2)c2cccc(-c3ccc(C(F)(F)F)c(C(=O)Nc4ccc(F)c(F)c4)c3)c21` [Example 30, N-(3,4-difluorophenyl)-5-(3,3-dimethyl-2-oxo-1-(pyrimidin-2-yl)indolin-4-yl)-2-(trifluoromethyl)benzamide] had a pEC50 of 7.62.
`CC1(C)C(=O)N(c2ncccn2)c2cccc(-c3ccc(C(F)(F)F)c(C(=O)Nc4ccc(F)c(Br)c4)c3)c21` [Example 31, N-(3-bromo-4-fluorophenyl)-5-(3,3-dimethyl-2-oxo-1-(pyrimidin-2-yl)indolin-4-yl)-2-(trifluoromethyl)benzamide] gave a pEC50 of 7.24.
For the molecule `CC1(C)C(=O)N(c2cccnc2)c2nccc(-c3ccc(C(F)(F)F)c(C(=O)Nc4ccc(F)c(F)c4)c3)c21` [Example 32, N-(3,4-difluorophenyl)-5-(3,3-dimethyl-2-oxo-1-(pyridin-3-yl)-2,3-dihydro-1H-pyrrolo[2,3-b]pyridin-4-yl)-2-(trifluoromethyl)benzamide], the pEC50 was 7.24.
The value for `O=C(Nc1ccc(F)cc1)c1cc(-c2cccc3c2C2(CCC2)C(=O)N3c2ncccn2)ccc1C(F)(F)F` [Example 33, N-(4-fluorophenyl)-5-(2′-oxo-1′-(pyrimidin-2-yl)spiro[cyclobutane-1,3′-indolin]-4′-yl)-2-(trifluoromethyl)benzamide] was 7.04.
On to `Cc1ccc(-c2cccc3c2oc(=O)n3-c2cccnc2)cc1C(=O)Nc1ccc(F)cc1` [Example 34, N-(4-fluorophenyl)-2-methyl-5-(2-oxo-3-(pyridin-3-yl)-2,3-dihydrobenzo[d]oxazol-7-yl)benzamide], for which the pEC50 was 7.72.
With `CC1(C)C(=O)N(c2ncccn2)c2cccc(-c3cnc(C(F)(F)F)c(C(=O)Nc4ccc(F)cc4)c3)c21` [Example 35, 5-(3,3-dimethyl-2-oxo-1-(pyrimidin-2-yl)indolin-4-yl)-N-(4-fluorophenyl)-2-(trifluoromethyl)nicotinamide], the pEC50 is 7.77.
The molecule `CC1(C)C(=O)N(c2cccnc2)c2cccc(-c3cnc(C(F)(F)F)c(C(=O)Nc4ccc(F)cc4)c3)c21` [Example 36, 5-(3,3-dimethyl-2-oxo-1-(pyridin-3-yl)indolin-4-yl)-N-(4-fluorophenyl)-2-(trifluoromethyl)nicotinamide] had a pEC50 of 7.59.
In the case of `CC1(C)C(=O)N(c2ncccn2)c2cccc(-c3ccc(C(F)(F)F)c(C(=O)Nc4ccccc4)c3)c21` [Example 37, 5-(3,3-dimethyl-2-oxo-1-(pyrimidin-2-yl)indolin-4-yl)-N-phenyl-2-(trifluoromethyl)benzamide], the negative logarithm of the EC50 (pEC50) is 7.55.
`CC1(C)C(=O)N(c2cccc(F)c2F)c2cccc(-c3ccc(C(F)(F)F)c(C(=O)Nc4ccc(F)cc4)c3)c21` [Example 38, 5-(1-(2,3-difluorophenyl)-3,3-dimethyl-2-oxoindolin-4-yl)-N-(4-fluorophenyl)-2-(trifluoromethyl)benzamide] had a pEC50 of 7.26. Compared with the last molecule, the pEC50 is 0.29 log units lower.
Consider `Cc1ccc(-c2cccc3c2oc(=O)n3-c2cccc(F)c2F)cc1C(=O)Nc1ccc(F)cc1` [Example 39, 5-(3-(2,3-difluorophenyl)-2-oxo-2,3-dihydrobenzo[d]oxazol-7-yl)-N-(4-fluorophenyl)-2-methylbenzamide], for which the negative-log EC50 (pEC50) is 7.33.
For the molecule `CC1(C)C(=O)N(c2ncc[nH]2)c2cccc(-c3ccc(C(F)(F)F)c(C(=O)Nc4ccc(F)cc4)c3)c21` [Example 40, 5-(1-(1H-imidazol-2-yl)-3,3-dimethyl-2-oxoindolin-4-yl)-N-(4-fluorophenyl)-2-(trifluoromethyl)benzamide], the pEC50 was 7.51.
